Measured values taken from ChEMBL document CHEMBL1125524, “Adenosine A1 antagonists. 2. Structure-activity relationships on diuretic activities and protective effects against acute renal failure” (J Med Chem, 1992).

Key:
Rattus norvegicus [1] = test: Ratio of urinary excretion value (urinary volume) in treated rats to that in control rats, at a peroral dose of 25 mg/Kg; assay type: functional, Urine
Rattus norvegicus [2] = test: Effect on urinary excretion potassium and sodium after oral administration of 25 mg/kg to rats(potassium and sodium excretion in control rat is 0.160+/-0.006); assay type: functional, Urine
Rattus norvegicus [3] = test: Percent inhibition of Urea nitrogen by the compound given as ratio of UN value in treated to vehicle treated ones after intraperitoneal administration of 10 mg/kg of compound to rats(vehicle 164.3+/-4.9); assay type: functional; conditions: ip
Rattus norvegicus [4] = test: Percent inhibition of serum creatinine by the compound given as ratio of Cr value in treated to vehicle treated ones after intraperitoneal administration of 10 mg/kg of compound to rats(vehicle 4.38+/-0.17); assay type: functional; conditions: ip
Rattus norvegicus [5] = test: Ratio of urinary excretion value (Na+ concentration) in treated rats to that in control rats, at a peroral dose of 25 mg/Kg; assay type: functional, Urine
Adenosine A2 receptor = Adenosine A2 receptor (Rattus norvegicus, UniProt P29276+P30543)
Rattus norvegicus [6] = test: Serum creatinine concentration measured after intraperitoneal administration of 10 mg/kg of compound to rats(vehicle 4.38+/-0.17); assay type: functional
Rattus norvegicus [7] = test: Urea nitrogen concentration measured after intraperitoneal administration of 10 mg/kg of compound to rats(vehicle 164.3+/-4.9); assay type: functional
Rattus norvegicus [8] = test: Oral diuretic activity was measured after oral administration of 25 mg/kg to rats(control volume is 0.76+/-0.01); assay type: functional, Urine
Rattus norvegicus [9] = test: Ratio of sodium ion/potassium ion concentration in treated rats to that in control rats, at a peroral dose of 25 mg/Kg; assay type: functional
Rattus norvegicus [10] = test: Ratio of urinary excretion value (urinary volume) in treated rats to that in control rats, at a peroral dose of 6.25 mg/Kg; assay type: functional, Urine
Rattus norvegicus [11] = test: Oral diuretic activity was measured after oral administration of 25 mg/kg to rats(control volume is 0.87+/-0.04); assay type: functional, Urine
Rattus norvegicus [12] = test: Percent inhibition of Urea nitrogen by the compound given as ratio of UN value in treated to vehicle treated ones after intraperitoneal administration of 1 mg/kg of compound to rats(vehicle 107.7+/-15.2); assay type: functional; conditions: ip
Rattus norvegicus [13] = test: Urea nitrogen concentration measured after intraperitoneal administration of 10 mg/kg of compound to rats(vehicle 138.4+/-9.8); assay type: functional
Rattus norvegicus [14] = test: Percent inhibition of serum creatinine by the compound given as ratio of Cr value in treated to vehicle treated ones after intraperitoneal administration of 10 mg/kg of compound to rats(vehicle 2.89+/-0.18); assay type: functional; conditions: ip
Rattus norvegicus [15] = test: Percent inhibition of serum creatinine by the compound given as ratio of Cr value in treated to vehicle treated ones after intraperitoneal administration of 1 mg/kg of compound to rats(vehicle 2.89+/-0.42); assay type: functional; conditions: ip
Rattus norvegicus [16] = test: Serum creatinine concentration measured after intraperitoneal administration of 10 mg/kg of compound to rats(vehicle 2.89+/-0.18); assay type: functional
Rattus norvegicus [17] = test: Percent inhibition of Urea nitrogen by the compound given as ratio of UN value in treated to vehicle treated ones after intraperitoneal administration of 10 mg/kg of compound to rats(vehicle 138.4+/-9.8); assay type: functional; conditions: ip
Rattus norvegicus [18] = test: Urea nitrogen concentration measured after intraperitoneal administration of 1 mg/kg of compound to rats(vehicle 107.7+/-15.2); assay type: functional
Rattus norvegicus [19] = test: Effect on urinary excretion potassium and sodium after oral administration of 25 mg/kg to rats(potassium and sodium excretion in control rat is 0.134+/-0.017); assay type: functional, Urine
Rattus norvegicus [20] = test: Ratio of urinary excretion value (Na+ concentration) in treated rats to that in control rats, at a peroral dose of 6.25 mg/Kg; assay type: functional, Urine
Rattus norvegicus [21] = test: Serum creatinine concentration measured after intraperitoneal administration of 1 mg/kg of compound to rats(vehicle 2.89+/-0.42); assay type: functional
Adenosine receptor A1 = target: T1, Adenosine receptor A1 (Cavia porcellus, UniProt P47745)
T1 sequence (P47745 whole entry): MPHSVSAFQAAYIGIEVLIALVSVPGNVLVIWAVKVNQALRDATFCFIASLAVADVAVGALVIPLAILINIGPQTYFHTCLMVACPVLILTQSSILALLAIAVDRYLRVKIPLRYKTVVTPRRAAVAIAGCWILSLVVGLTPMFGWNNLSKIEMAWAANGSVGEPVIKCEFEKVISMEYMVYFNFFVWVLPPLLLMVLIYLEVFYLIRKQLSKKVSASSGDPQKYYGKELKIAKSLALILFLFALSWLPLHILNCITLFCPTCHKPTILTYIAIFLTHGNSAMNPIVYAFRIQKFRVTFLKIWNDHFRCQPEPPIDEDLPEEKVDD
Description: Binding affinity against adenosine A1 receptor in guinea pig forebrain membranes using N6-[3H]cyclohexyladenosine as radioligand

CCCn1c(=O)c2c(nc(C(C3CC3)C3CC3)n2CCC)n(CCC)c1=O
T/C (Rattus norvegicus [1]): 1.47
Na (Rattus norvegicus [2]): 0.188 m equiv 6hr-1 100g-1
inhibition in vivo at 10 mg/kg (Rattus norvegicus [3]): 3%
inhibition in vivo at 10 mg/kg (Rattus norvegicus [4]): 7%
T/C (Rattus norvegicus [5]): 1.18
Ki (Adenosine A2 receptor): 6300 nM
Cr (Rattus norvegicus [6]): 4.09 mg/dL
UN (Rattus norvegicus [7]): 159.2 mg/dL
Urine volume (Rattus norvegicus [8]): 1.12 ml 6hr-1 100g-1
Na+/K+ (Rattus norvegicus [9]): 0.92

FC(F)(F)c1nnc2c(NC3CCCC3)nc3ccccc3n12
T/C (Rattus norvegicus [1]): 2.13
T/C (Rattus norvegicus [10]): 0.92
Urine volume (Rattus norvegicus [11]): 1.86 ml 6hr-1 100g-1
inhibition in vivo at 1 mg/kg (Rattus norvegicus [12]): 15%
T/C (Rattus norvegicus [5]): 1.55
UN (Rattus norvegicus [13]): 58.9 mg/dL
Ki (Adenosine A2 receptor): 1300 nM
inhibition in vivo at 10 mg/kg (Rattus norvegicus [14]): 48%
inhibition in vivo at 1 mg/kg (Rattus norvegicus [15]): 10%
Cr (Rattus norvegicus [16]): 1.52 mg/dL
inhibition in vivo at 10 mg/kg (Rattus norvegicus [17]): 62%
UN (Rattus norvegicus [18]): 92 mg/dL
Na (Rattus norvegicus [19]): 0.314 m equiv 6hr-1 100g-1
Na+/K+ (Rattus norvegicus [9]): 1.71
T/C (Rattus norvegicus [20]): 1.1
Cr (Rattus norvegicus [21]): 2.6 mg/dL
Ki (Adenosine receptor A1): 76 nM
